Source: patent US20250163056A1, “NONMUSCLE MYOSIN II INHIBITORS” (The University of Florida Research Foundation, Inc., priority 2018, published 2025)

Experiments:
Bovine cardiac myosin = Bovine cardiac myosin (Bos taurus (Bovine), UniProt Q9BE39); test: Cardiac muscle myosin II actin-activated ATPase assay (NADH-coupled); assay type: biochemical; parameters: key to Ratio CMMII:NMII Ki/EC50: NMII-sel: no Ki value for cardiac myosin II could be determined; the compounds had no detectable inhibitory properties versus the cardiac myosin II; details: for Ki: 300 nM cardiac myosin, 10 μM actin, 25° C., read-out: CMMII KI; for Ratio CMMII:NMII Ki/EC50: cardiac myosin II Ki over nonmuscle myosin II EC50
Bovine cardiac myosin, sequence (Q9BE39 whole entry): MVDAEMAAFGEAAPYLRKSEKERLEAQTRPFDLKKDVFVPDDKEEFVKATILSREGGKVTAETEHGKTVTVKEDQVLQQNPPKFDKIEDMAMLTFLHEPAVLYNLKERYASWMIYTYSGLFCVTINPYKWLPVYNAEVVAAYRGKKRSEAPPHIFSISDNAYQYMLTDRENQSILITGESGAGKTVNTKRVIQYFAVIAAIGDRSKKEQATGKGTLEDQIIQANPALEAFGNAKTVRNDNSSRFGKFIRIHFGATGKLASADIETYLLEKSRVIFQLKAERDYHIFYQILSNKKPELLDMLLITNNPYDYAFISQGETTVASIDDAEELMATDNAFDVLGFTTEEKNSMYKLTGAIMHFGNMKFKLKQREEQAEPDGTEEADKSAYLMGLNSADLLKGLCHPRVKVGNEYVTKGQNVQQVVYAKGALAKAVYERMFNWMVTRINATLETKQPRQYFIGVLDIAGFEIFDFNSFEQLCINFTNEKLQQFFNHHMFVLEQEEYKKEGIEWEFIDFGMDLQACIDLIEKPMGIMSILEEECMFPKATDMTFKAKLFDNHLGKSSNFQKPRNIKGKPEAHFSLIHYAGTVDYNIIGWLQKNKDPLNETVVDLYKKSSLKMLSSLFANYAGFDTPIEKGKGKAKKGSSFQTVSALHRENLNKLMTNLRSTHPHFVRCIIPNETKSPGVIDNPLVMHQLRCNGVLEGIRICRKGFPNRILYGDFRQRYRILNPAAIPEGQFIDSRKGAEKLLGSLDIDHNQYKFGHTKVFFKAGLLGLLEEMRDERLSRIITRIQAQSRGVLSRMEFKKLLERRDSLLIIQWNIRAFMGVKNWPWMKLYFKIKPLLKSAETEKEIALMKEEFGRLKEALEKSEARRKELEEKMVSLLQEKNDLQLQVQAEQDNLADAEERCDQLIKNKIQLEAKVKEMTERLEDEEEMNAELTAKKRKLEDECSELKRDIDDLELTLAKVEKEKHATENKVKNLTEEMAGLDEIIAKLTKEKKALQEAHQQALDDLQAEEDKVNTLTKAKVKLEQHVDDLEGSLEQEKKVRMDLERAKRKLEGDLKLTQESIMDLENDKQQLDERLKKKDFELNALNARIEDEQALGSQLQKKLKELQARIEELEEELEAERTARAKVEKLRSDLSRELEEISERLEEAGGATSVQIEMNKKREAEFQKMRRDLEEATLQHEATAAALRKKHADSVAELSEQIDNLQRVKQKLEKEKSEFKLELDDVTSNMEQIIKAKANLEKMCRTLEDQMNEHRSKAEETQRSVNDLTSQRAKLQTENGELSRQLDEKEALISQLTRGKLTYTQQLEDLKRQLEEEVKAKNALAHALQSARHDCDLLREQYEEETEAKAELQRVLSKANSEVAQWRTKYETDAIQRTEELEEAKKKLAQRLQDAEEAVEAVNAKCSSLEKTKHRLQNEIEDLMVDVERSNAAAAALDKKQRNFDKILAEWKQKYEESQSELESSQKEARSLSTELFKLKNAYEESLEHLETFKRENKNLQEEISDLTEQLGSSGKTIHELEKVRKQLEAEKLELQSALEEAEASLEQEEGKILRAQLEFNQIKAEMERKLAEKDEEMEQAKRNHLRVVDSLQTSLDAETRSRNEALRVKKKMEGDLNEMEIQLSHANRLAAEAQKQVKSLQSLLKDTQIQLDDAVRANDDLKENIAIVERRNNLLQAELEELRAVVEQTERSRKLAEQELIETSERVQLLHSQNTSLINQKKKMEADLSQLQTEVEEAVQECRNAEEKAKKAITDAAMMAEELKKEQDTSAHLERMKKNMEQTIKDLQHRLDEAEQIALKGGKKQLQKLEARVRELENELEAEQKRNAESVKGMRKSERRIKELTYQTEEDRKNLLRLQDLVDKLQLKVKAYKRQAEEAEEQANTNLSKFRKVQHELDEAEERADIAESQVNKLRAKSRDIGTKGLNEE
Bovine cardiac myosin, sequence (P85100 whole entry partner): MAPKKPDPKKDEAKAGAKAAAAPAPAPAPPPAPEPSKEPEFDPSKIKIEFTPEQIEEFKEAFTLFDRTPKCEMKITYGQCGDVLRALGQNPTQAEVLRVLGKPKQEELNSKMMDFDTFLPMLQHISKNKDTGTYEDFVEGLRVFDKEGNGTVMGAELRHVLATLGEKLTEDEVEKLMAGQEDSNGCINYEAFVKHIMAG
Bovine cardiac myosin, sequence (Q3SZE5 whole entry partner): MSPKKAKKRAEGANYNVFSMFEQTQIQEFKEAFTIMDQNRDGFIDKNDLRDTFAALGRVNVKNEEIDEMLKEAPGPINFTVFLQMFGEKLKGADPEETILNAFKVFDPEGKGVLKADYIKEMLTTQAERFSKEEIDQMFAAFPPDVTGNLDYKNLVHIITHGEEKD
From the text: (§1) The cardiac muscle myosin II actin-activated ATPase assay is a biochemical assay. Specifically, it is an NADH (nicotinamide adenine dinucleotide)-coupled ATPase assay that relies on NADH fluorescence as a readout. Cardiac myosin is a mechanochemical energy transducer that hydrolyzes ATP to generate force in the presence of its activator, F-actin. The resulting ADP is regenerated to ATP by pyruvate kinase (PK) that transforms one molecule of phosphoenolpyruvate (PEP) to pyruvate in parallel. Subsequently, pyruvate is reduced to lactate by lactate dehydrogenase (LDH) that, in turn, oxidizes one molecule of NADH to NAD. Therefore, the decrease in NADH concentration as a function of time equals the ATP hydrolysis rate. Bovine cardiac myosin is obtained from a commercial source, Cytoskeleton. PK, LDH, ATP, PEP, and NADH are obtained from Sigma. F-actin is prepared in house from Rabbit Muscle Acetone Powder. The assay is run at 25° C. in 384 well black-wall polystyrene microplates with a total volume of 20 μl per well. NADH fluorescence is monitored for 30 minutes with an EnVision Multimode Plate Reader. The slope of the fluorescence response, which is proportional to the reaction rate, is determined by simple linear regression. Final assay conditions are 300 nM cardiac myosin, 10 μM actin, 40 U/ml LDH, 200 U/ml PK, 220 μM NADH, 1 mM PEP, 1 mM ATP in a buffer containing 10 mM 3-(N-morpholino)propanesulfonic acid (pH=7.0), 2 mM MgCl2, 0.15 mM ethylene glycol-bis(p-aminoethyl ether)-N,N,N′,N′-tetraacetic acid, 0.1 mg/mL bovine serum albumin, 0.5% (V/V) dimethyl sulfoxide (DMSO) and 1 mM dithiothreitol. Prior to testing the inhibitory activity of the compounds, a two-fold dilution series starting at 10 mM compound concentration is prepared in DMSO. Subsequently, 100 nl is transferred to each well of the measuring plate containing a mixture of myosin, LDH and PK. The enzymatic reaction is started with the addition of a mixture containing ATP, PEP, NADH and actin. The highest final compound concentration is 50 uM. 20 μM para-aminoblebbistatin in 0.5% DMSO serves as the positive control and 0.5% DMSO alone is the negative control. Reaction rates are determined by using the fluorescence responses of a dilution series of NADH included in all plates and plotted as a function of inhibitor concentration. All measurements are carried out in triplicate. Inhibitory constants are determined by fitting the 16 point dose-response data to a quadratic equation corresponding to a simple one-to-one binding model.

[1] = Photostability, percentage remaining undegraded under illumination or in the dark; details: for Photostability 4 hours: percentage remaining undegraded after 4 hours illumination; for Photostability 24 hours: percentage remaining undegraded after 24 hours illumination; for Photostability Dark (24 h): percentage remaining undegraded in the dark
Rabbit skeletal myosin = test: Skeletal muscle myosin II actin-activated ATPase assay; assay type: biochemical; details: 20 nM skeletal muscle myosin II; read-out: SKMMII KI
From the text: as §1
The skeletal muscle myosin II actin-activated ATPase assay is performed the same as for cardiac muscle myosin II with the following exceptions: Rabbit skeletal myosin is obtained from Cytoskeleton and the final assay conditions contain 20 nM skeletal muscle myosin II.

Structure (SMILES) | Ki (Bovine cardiac myosin) [µM] | Ratio CMMII:NMII Ki/EC50 (Bovine cardiac myosin) | Photostability 4 hours [1] [%] | Photostability 24 hours [1] [%] | Photostability Dark (24 h) [1] [%] | Ki (Rabbit skeletal myosin) [nM]
Cc1cc2c(cc1C)C(=O)[C@]1(O)CCN(c3ccc4ccoc4c3)C1=N2 [BPN-0026664] | 29 | 33.3 | 30.3 | <1 | 97.7 | 1500
COc1ccc(N2CC[C@@]3(O)C(=O)c4cc(C)c(C)cc4N=C23)cc1 [BPN-0026665] | 4.2 | 6.7 | 2.7 | <1 | 97.4 | 140
Cc1ncc(N2CC[C@@]3(O)C(=O)c4cc(F)c(C(F)(F)F)cc4N=C23)s1 [BPN-0026667] | 6.2 | 5.2 | 85.7 | 2.9 | >99 | 330
Cc1cc2c(cc1F)C(=O)[C@]1(O)CCN(c3ccccc3)C1=N2 [BPN-0026669] | 25 | 4.7 | 87.8 | 11.2 | >99 | 1200
Cc1ncc(N2CC[C@@]3(O)C(=O)c4cc(C)c(C)cc4N=C23)s1 [BPN-0026693] | 3.5 | 6.0 | 34.1 | 1.7 | >99 | 270
Cc1cc2c(cc1C)C(=O)[C@]1(O)CCN(c3cccs3)C1=N2 [BPN-0026708] | 5.3 | 3.1 | 40.7 | <1 | >99 | 1400
COc1cc(N2CC[C@@]3(O)C(=O)c4cc(C)c(C)cc4N=C23)ccn1 [BPN-0026709] | 30.6 | 25.5 | 98.7 | 93.0 | 98.2 | 1300
Cc1cc2c(cc1C)C(=O)[C@]1(O)CCN(c3cnn(C)c3)C1=N2 [BPN-0026710] | 5.2 | 3.1 | 6.6 | <1 | >99 | 950
Cc1cc2cc(N3CC[C@@]4(O)C(=O)c5cc(F)c(C)cc5N=C34)ccc2o1 [BPN-0026726] |  | NMII-sel | 76.3 | 24.1 | 95.4 | 4400
COc1cc(N2CC[C@@]3(O)C(=O)c4cc(F)c(C)cc4N=C23)ccn1 [BPN-0026745] | 73 | 25.2 | >99 | 94.2 | >99 | 2600
Cc1cc2c(cc1F)C(=O)[C@]1(O)CCN(c3cnn(C)c3)C1=N2 [BPN-0026746] | 17 | 3.8 | 58.8 | 10.6 | >99 | 3600
Cc1cc2c(cc1F)C(=O)[C@]1(O)CCN(c3cccs3)C1=N2 [BPN-0026748] | 14 | 4.7 | 88.2 | 22.4 | >99 | 2600
CCc1cc2c(s1)N=C1N(c3ccc4ccoc4c3)CC[C@@]1(O)C2=O [BPN-0026749] |  | NMII-sel | 87.8 | <5 | >99 | 23000

More lines, now with the values ahead:

Ki (Bovine cardiac myosin) [µM] | Ratio CMMII:NMII Ki/EC50 (Bovine cardiac myosin) | Photostability 4 hours [1] [%] | Photostability 24 hours [1] [%] | Photostability Dark (24 h) [1] [%] | Ki (Rabbit skeletal myosin) [nM] | Structure (SMILES)
 | NMII-sel | >99 | 92.9 | >99 | 1500 | CCc1cc2c(s1)N=C1N(c3ccc(Cl)cc3)CC[C@@]1(O)C2=O [BPN-0026770]
8.9 | 3.4 | 86.7 | 18.1 | >99 | 1100 | CCc1cc2c(s1)N=C1N(c3ccc(C)cc3)CC[C@@]1(O)C2=O [BPN-0026774]
23 | 3.1 | 95.8 | 59.3 | 91.6 | 5900 | O=C1c2c(sc3ccccc23)N=C2N(c3ccccc3)CC[C@@]12O [BPN-0026785]
1.6 | 3.1 | 82.0 | <1 | >99 | 110 | COc1ccc(N2CC[C@@]3(O)C(=O)c4c(sc(C)c4C)N=C23)cc1 [BPN-0026813]
2.8 | 3.6 | 91.2 | 88.2 | 90.2 | 270 | Cc1sc2c(c1C)C(=O)[C@]1(O)CCN(c3ccc(Cl)cc3)C1=N2 [BPN-0026815]
50 | 27.8 | 96.6 | 84.8 | 97.3 | 1700 | Cc1ccc(N2CC[C@@]3(O)C(=O)c4cc(C)c(C(F)(F)F)cc4N=C23)cc1 [BPN-0026819]
320 | 12.3 | >99 | 98.7 | >99 | 61000 | CCc1cc2c(s1)N=C1N(c3ccc(C#N)c(C)c3)CC[C@@]1(O)C2=O [BPN-0026848]
16 | 16.0 | 98.5 | 91.8 | >99 | 770 | COc1ccc(N2CC[C@@]3(O)C(=O)c4cc(C)c(C(F)(F)F)cc4N=C23)cc1 [BPN-0026849]
25 | 9.6 | 62.4 | 3.8 | 85.1 | 5600 | Cc1cc2cc(N3CC[C@@]4(O)C(=O)c5cc(C)c(C)cc5N=C34)ccc2o1 [BPN-0026852]
11 | 6.1 | 70.9 | 1.8 | >99 | 800 | CCc1cc2c(s1)N=C1N(c3ccc(OC)cc3)CC[C@@]1(O)C2=O [BPN-0026881]
21 | 3.6 | 98.8 | 96.8 | >99 | 4500 | Cc1cc2c(s1)C(=O)[C@]1(O)CCN(c3ccc(C)c(Cl)c3)C1=N2 [BPN-0026882]
22 | 7.3 | 90.2 | 24.7 | 97.4 | 4900 | Cc1ccc2c(c1)C(=O)[C@]1(O)CCN(c3ccc4ncsc4c3)C1=N2 [BPN-0027036]
 | NMII-sel | >99 | >99 | >99 | 18000 | COc1cc(N2CC[C@@]3(O)C(=O)c4cc(C)c(C(F)(F)F)cc4N=C23)ccn1 [BPN-0027037]
